Measurements: patent EP1143981B1, “USE OF N-GLYCOLNEURAMINIC ACID AND ITS DERIVATIVES FOR THE MANUFACTURE OF A MEDICAMENT FOR THE TREATMENT OF HIV INFECTIONS” (Glukor, Inc., priority 1998, dated 2000)

Experiments:
Assay type in all cases: cell-based
HIV-1 IIIB [1] = assay: HIV-1 P24 output, repeat with stored solutions, 3 hours infection; conditions: day 6
Description: The test was repeated using test solutions stored at 4°C. In this experiment, the dilutions were mixed with HIV-1 IIIB virus at the time of infecting the activated human PBMCs for 3 hours. The cells then were washed and incubated in triplicate wells (1x10^3 cells/well) in the presence of the indicated dilution of the test solution. One half media changes included the test solution dilutions. Conditioned media were tested for P24 output by the antigen capture assay on day 6. Results are shown in Table 10 and are presented as the inhibition % of control (no carbohydrate added).

HIV-1III B [2] = assay: HIV-1 P24 output, test solution mixed with virus, PBMCs infected overnight; conditions: day 9
Description: Example 4-Specificity of Inhibition: Research grade purified d-Galactose (CAT# g404, lot 117H00431, FW 180.2, Sigma Chemical Co., St. Louis, MO) was dissolved in saline at a concentration of 5mg/ml. The solution was allowed to stand at room temperature for 15 minutes and mixed by vortex until the galactose was completely dissolved. The galactose solution was divided into two equal aliquots. Stabilizing solution (0.1 ml) was added to one aliquot, then vortexed and incubated at room temperature for 30 minutes. After mixing again, the mixture was centrifuged at 1500g for 30 minutes and the supernatant was filtered through a 0.2µm filter and transferred to a sterile 15 ml tube. The solution was sterilized by gamma radiation (2.5 mega RADs) with 15 minutes exposure. The aliquot without the stabilizing solution was labeled "1A" and the aliquot containing the stabilized solution was labeled "1B". […] Each of the test solutions were diluted 1:20 1:40,1:80, and 1:160 in saline. Control solutions were water.
One ml of each of the dilutions of the test solution or control was mixed with an equal volume of HIV-1III B (~50 TCID50 /2x10^5 cells) to infect activated human PBMCs overnight at 37°C (3x10^5 cells/dilution). HIV-1III B is a laboratory-adapted strain. The cells then were washed and placed in culture media containing the indicated dilution of the test solution in triplicate wells (1x10^3 cells per well, ½ medium changes with media containing the indicated dilutions of test solution were made at ~3 day intervals). The conditioned media were tested for HIV-1 P24 output on day 9 using the DuPont P24 assay kit. The control was infected PBMCs in the absence of test solutions. Results are shown in Table 9 and are measured as the Inhibition% of the control. […]

HIV-1 IIIB [3] = assay: HIV-1 P24 output, test solutions added post infection
Description: In addition, a similar experiment was performed, except that test solutions were added post infection, at the time of plating into the triplicate wells.

HIV-1III B [4] = assay: HIV-1 P24 output, test solution mixed with virus, PBMCs infected overnight; conditions: Dilution 1:10 of 5mg/ml solution, day 9
X4 strain LAI/IIIB = assay: RT activity in infected PBMCs over 20 days post-infection
Description: Reverse Transcriptase Activity Assay: A microtiter based reverse transcriptase (RT) reaction was utilized as described by Buckheit et al., (1991), AIDS Research and Human Retroviruses, 7:295-302. Tritiated thymidine triphosphate (^3H-TTP) was suspended in distilled H2O at 5 Ci/mL. Poly rA and oligo dT were prepared as a stock solution which was kept at -20°C. RT reaction buffer was prepared fresh on a daily basis and contained 125 µL 1M EGTA, 125 µL dH2O, 110 µL 10% SDS, 50 µL 1M Tris (pH 7.4), 50 µL 1M DTT, and 40 µL 1M MgCl2. These three solutions were mixed together in a ratio of 2 parts ^3H-TTP, 1 part poly rA:oligo dT, and 1 part reaction buffer. Ten microliters of this reaction mixture were placed in a round bottom microtiter plate and 15 µL of virus containing supernatant were added and mixed. The plate was incubated at 37°C in a water bath with a solid support to prevent submersion of the plate and incubated for 60 minutes. After the incubation period, the reaction volume was spotted onto pieces of DE81 paper, washed 5 times for 5 minutes each in a 5% sodium phosphate buffer, 2 times for 1 minute each in distilled water, 2 times for 1 minute each in 70% ethanol, and then dried. Opti-Fluor-O (Packard) was added to each sample and incorporated radioactivity was quantified utilizing a Wallac 1450 MicroBeta Plus liquid scintillation counter. Plates were screened with tetrazolium dye staining as described above.
PBMCs were treated with dilutions of LUKOR of 1:4, 1:20, 1:100, 1:500, or 1:2500, or concentrations ofN-glycolylneuraminic acid or N-acetylneuraminic acid of 0.4, 1.2, 3.6, 11, or 33µg/ml. No carbohydrates were added to the control sample. RT activity was determined at 3, 6, 9,13, 17, and 20 days post-infection (PI) with X4 strain LAI/IIIB.

[5] = Dilution 1:10, solutions stored at 4°C
[6] = Dilution 1:20, solutions stored at 4°C
[7] = Dilution 1:40, solutions stored at 4°C
[8] = Dilution 1:80, solutions stored at 4°C
[9] = Dilution 1:160, solutions stored at 4°C
[10] = Dilution 1:10, added post infection
[11] = Dilution 1:20, added post infection
[12] = Dilution 1:20, repeat with further dilutions (Table 12)
[13] = Dilution 1:40, added post infection
[14] = Dilution 1:80, added post infection
[15] = Dilution 1:100, repeat with further dilutions (Table 12)
[16] = Dilution 1:160, added post infection
[17] = Dilution 1:1000, repeat with further dilutions (Table 12)

Compound: O=C(CO)N[C@H]1[C@H]([C@H](O)[C@H](O)CO)OC(O)(C(=O)O)C[C@@H]1O (single isomer, unassigned) [2A, N-glycolylneuraminic acid]
- Inhibition % of Control (HIV-1 IIIB [1]; [5]): 96%
- Inhibition % of Control (HIV-1 IIIB [1]; [6]): 78%
- Inhibition % of Control (HIV-1 IIIB [1]; [7]): 62%
- Inhibition % of Control (HIV-1 IIIB [1]; [8]): 47%
- Inhibition % of Control (HIV-1 IIIB [1]; [9]): 17%
- P24 output, Inhibition% of the control (HIV-1III B [2]; Dilution 1:20): 78%
- P24 output, Inhibition% of the control (HIV-1III B [2]; Dilution 1:40): 66%
- Inhibition % of Control (HIV-1 IIIB [3]; [10]): 95%
- Inhibition % of Control (HIV-1 IIIB [3]; [11]): 75%
- Inhibition % of Control (HIV-1 IIIB [3]; [12]): 88%
- Inhibition % of Control (HIV-1 IIIB [3]; [13]): 66%
- Inhibition % of Control (HIV-1 IIIB [3]; [14]): 30%
- Inhibition % of Control (HIV-1 IIIB [3]; [15]): 55%
- Inhibition % of Control (HIV-1 IIIB [3]; [16]): 16%
- Inhibition % of Control (HIV-1 IIIB [3]; [17]): 7%
- inhibition at 5000 µg/mL (stock) (HIV-1III B [4]; Human immunodeficiency virus 1, PBMC, 216 h, read-out: P24 output, Inhibition% of the control): 94%

Compound: O=C(CO)N[C@H]1[C@H]([C@H](O)[C@H](O)CO)OC(O)(C(=O)O)C[C@@H]1O (single isomer, unassigned) [2B, N-glycolylneuraminic acid]
- Inhibition % of Control (HIV-1 IIIB [1]; [5]): 88%
- Inhibition % of Control (HIV-1 IIIB [1]; [6]): 74%
- Inhibition % of Control (HIV-1 IIIB [1]; [7]): 59%
- Inhibition % of Control (HIV-1 IIIB [1]; [8]): 44%
- Inhibition % of Control (HIV-1 IIIB [1]; [9]): 13%
- P24 output, Inhibition% of the control (HIV-1III B [2]; Dilution 1:20): 81%
- P24 output, Inhibition% of the control (HIV-1III B [2]; Dilution 1:40): 61%
- P24 output, Inhibition% of the control (HIV-1III B [2]; Dilution 1:80): 37%
- P24 output, Inhibition% of the control (HIV-1III B [2]; Dilution 1:160): 16%
- Inhibition % of Control (HIV-1 IIIB [3]; [10]): 82%
- Inhibition % of Control (HIV-1 IIIB [3]; [11]): 70%
- Inhibition % of Control (HIV-1 IIIB [3]; [12]): 78%
- Inhibition % of Control (HIV-1 IIIB [3]; [13]): 61%
- Inhibition % of Control (HIV-1 IIIB [3]; [14]): 26%
- Inhibition % of Control (HIV-1 IIIB [3]; [15]): 42%
- Inhibition % of Control (HIV-1 IIIB [3]; [16]): 15%
- Inhibition % of Control (HIV-1 IIIB [3]; [17]): 1%
- P24 output, Inhibition% of the control (HIV-1III B [4]): 93%

Compound: OC[C@H]1O[C@H](O[C@H]2[C@@H](O)[C@@H](CO)OC(O)[C@@H]2O)[C@H](O)[C@@H](O)[C@H]1O (stereo partly drawn) [3AA, galactose-α 1,3-galactose]
- P24 output, Inhibition% of the control (HIV-1III B [2]; Dilution 1:20): 3.6%
- P24 output, Inhibition% of the control (HIV-1III B [2]; Dilution 1:40): 2.2%
- P24 output, Inhibition% of the control (HIV-1III B [2]; Dilution 1:80): 1.4%
- P24 output, Inhibition% of the control (HIV-1III B [2]; Dilution 1:160): 0.4%
- P24 output, Inhibition% of the control (HIV-1III B [4]): 4.3%

Compound: CC(=O)N[C@H]1[C@H]([C@H](O)[C@H](O)CO)OC(O)(C(=O)O)C[C@@H]1O (some centres unmarked) [N-acetylneuraminic acid, reference compound]
- RT Activity (X4 strain LAI/IIIB; 0.4 µg/ml, 3 days PI): 89
- RT Activity (X4 strain LAI/IIIB; 0.4 µg/ml, 6 days PI): 129
- RT Activity (X4 strain LAI/IIIB; 0.4 µg/ml, 9 days PI): 878
- RT Activity (X4 strain LAI/IIIB; 0.4 µg/ml, 13 days PI): 2703
- RT Activity (X4 strain LAI/IIIB; 0.4 µg/ml, 17 days PI): 1615
- RT Activity (X4 strain LAI/IIIB; 0.4 µg/ml, 20 days PI): 812
- RT Activity (X4 strain LAI/IIIB; 3.6 µg/ml, 3 days PI): 83
- RT Activity (X4 strain LAI/IIIB; 3.6 µg/ml, 6 days PI): 508
- RT Activity (X4 strain LAI/IIIB; 3.6 µg/ml, 9 days PI): 1902
- RT Activity (X4 strain LAI/IIIB; 3.6 µg/ml, 13 days PI): 1892
- RT Activity (X4 strain LAI/IIIB; 3.6 µg/ml, 17 days PI): 1260
- RT Activity (X4 strain LAI/IIIB; 3.6 µg/ml, 20 days PI): 836
- RT Activity (X4 strain LAI/IIIB; 11 µg/ml, 3 days PI): 43
- RT Activity (X4 strain LAI/IIIB; 11 µg/ml, 6 days PI): 75
- RT Activity (X4 strain LAI/IIIB; 11 µg/ml, 9 days PI): 799
- RT Activity (X4 strain LAI/IIIB; 11 µg/ml, 13 days PI): 2047
- RT Activity (X4 strain LAI/IIIB; 11 µg/ml, 17 days PI): 2990
- RT Activity (X4 strain LAI/IIIB; 11 µg/ml, 20 days PI): 1171
- RT Activity (X4 strain LAI/IIIB; 33 µg/ml, 3 days PI): 36
- RT Activity (X4 strain LAI/IIIB; 33 µg/ml, 6 days PI): 53
- RT Activity (X4 strain LAI/IIIB; 33 µg/ml, 9 days PI): 165
- RT Activity (X4 strain LAI/IIIB; 33 µg/ml, 13 days PI): 442
- RT Activity (X4 strain LAI/IIIB; 33 µg/ml, 17 days PI): 1273
- RT Activity (X4 strain LAI/IIIB; 33 µg/ml, 20 days PI): 1526
- RT activity in treated cells (summary in words) (X4 strain LAI/IIIB; all dilutions/concentrations, 3-20 days PI): decreased RT activity was observed only with high concentrations

Compound: d-Galactose [1A]
- P24 output, Inhibition% of the control (HIV-1III B [2]; Dilution 1:20): 5%
- P24 output, Inhibition% of the control (HIV-1III B [2]; Dilution 1:40): 4%
- P24 output, Inhibition% of the control (HIV-1III B [2]; Dilution 1:80): 2%
- P24 output, Inhibition% of the control (HIV-1III B [2]; Dilution 1:160): 2%
- P24 output, Inhibition% of the control (HIV-1III B [4]): 4%

Compound: d-Galactose [1B]
- P24 output, Inhibition% of the control (HIV-1III B [2]; Dilution 1:20): 5%
- P24 output, Inhibition% of the control (HIV-1III B [2]; Dilution 1:40): 3%
- P24 output, Inhibition% of the control (HIV-1III B [2]; Dilution 1:80): 4%
- P24 output, Inhibition% of the control (HIV-1III B [2]; Dilution 1:160): 2%
- P24 output, Inhibition% of the control (HIV-1III B [4]): 7%
